This is an account of results in US20020061902A1, “Treatment method” (SCHERING CORPORATION, priority 2000, published 2002).

For one series, the system named is eosinophils. Kind of series: PAF-induced eosinophil chemotaxis (blind well-chamber technique). The note with it: 10 μM desloratadine; 1 μM PAF; eosinophils from patients with allergic rhinitis or allergic asthma; P<0.02. Type of series: cell-based, human.
The subject of series [1] is eosinophils / human umbilical endothelial cells (HUVECs). Kind of series: TNFα-induced adhesion of 51Cr-labeled eosinophils to HUVECs. Type of series: cell-based. The following applies: 10 μM desloratadine; TNFA; P<0.02.
From the text: Eosinophils were isolated and purified (>99% pure and >98% viable) from the blood of patients with allergic rhinitis or allergic asthma; a 2-week washout preceded blood collection.
Series [2] can be described thus: stability of free base versus acid addition salt. The class given is physicochemical. The following applies: free base vs acid addition salt.
The test system of series [3] is rhinitis due to pollen allergy. The note with it: given over a two week period; patients with rhinitis due to pollen allergy; cited from earlier work.

With `Clc1ccc2c(c1)CCc1cccnc1C2=C1CCNCC1` [Desloratadine, desloratadine], the “maximum attenuation of PAF-induced eosinophil chemotaxis” value in the series with eosinophils is reported as 36%±8%. In addition, the “maximum attenuation of TNFα-induced eosinophil adhesion to HUVECs” value in series [1] was 27%±5%. In series [2], the “stability as the free base compared with an acid addition salt” value is “more stable as the free base”.

Take `O=C(O)COCCN1CCN(C(c2ccccc2)c2ccc(Cl)cc2)CC1` (stereo not drawn) [cetirizine]: in series [3], the “ICAM-1 expression on nasal epithelial cells” value is “reduced”, the eosinophil counts entry is “reduced” and the rhinitis symptoms entry is listed as “reduced”.

Consider `CCOC(=O)N1CCC(=C2c3ccc(Cl)cc3CCc3cccnc32)CC1` [loratadine], for which, in series [3], the “ICAM-1 expression on nasal epithelial cells” value is on record as “reduced”, the eosinophil counts result was “reduced” and the rhinitis symptoms entry is recorded as “reduced”.
